Assay results taken from patent publication US8580852B2, “2-oxamide inhibitors of phospholipase A2 activity and cellular arachidonate release based on dipeptides and pseudopeptides” (The Regents of the University of California, priority 2009, dated 2013).
Values joined by “and” are separate entries in the source; they are usually repeats but may differ in a detail not shown here. Identical values can stand only once. Like-named read-outs stand apart in the source and are kept apart here.

Tests used:
[1] = molecular target: T1, GIVA cPLA2 (Homo sapiens, UniProt P47712); assay: In vitro PLA2 mixed micellar assay (modified Dole assay), GIVA cPLA2; type: biochemical; conditions: for GIVA cPLA2 X1(50): mixed micelles, mole fraction of inhibitor in total substrate interface required to inhibit the enzyme by 50%; for GIVA cPLA2 % inhibition: at 0.091 mole fraction of inhibitor, n = 3
T1 sequence (P47712 1-749): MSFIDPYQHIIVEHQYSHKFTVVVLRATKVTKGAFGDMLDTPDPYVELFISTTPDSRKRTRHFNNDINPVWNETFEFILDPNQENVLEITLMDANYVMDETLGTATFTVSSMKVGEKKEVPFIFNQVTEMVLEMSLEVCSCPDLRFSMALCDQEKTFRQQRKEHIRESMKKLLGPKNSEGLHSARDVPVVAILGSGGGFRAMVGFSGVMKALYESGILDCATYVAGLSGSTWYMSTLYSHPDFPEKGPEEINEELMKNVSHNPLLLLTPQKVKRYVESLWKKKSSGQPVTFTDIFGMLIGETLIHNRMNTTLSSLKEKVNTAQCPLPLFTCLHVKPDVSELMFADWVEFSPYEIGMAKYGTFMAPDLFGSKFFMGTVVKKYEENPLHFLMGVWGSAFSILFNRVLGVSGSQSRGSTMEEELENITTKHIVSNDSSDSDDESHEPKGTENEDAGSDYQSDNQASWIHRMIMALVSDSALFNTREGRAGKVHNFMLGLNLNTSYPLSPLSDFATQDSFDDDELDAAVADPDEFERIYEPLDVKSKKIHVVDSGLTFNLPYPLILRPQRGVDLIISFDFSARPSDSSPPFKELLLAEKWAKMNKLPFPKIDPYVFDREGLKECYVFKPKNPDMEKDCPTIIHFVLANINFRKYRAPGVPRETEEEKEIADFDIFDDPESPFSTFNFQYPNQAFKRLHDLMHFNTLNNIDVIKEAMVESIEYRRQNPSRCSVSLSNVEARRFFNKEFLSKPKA
Protocol: (§1) All the inhibitors synthesized in this work were tested for inhibition of GIVA cPLA2, GVIA iPLA2 and GV sPLA2 using mixed micellar assays. Details for the assays have been published previously. The results of the inhibition are presented in Table 1 using either percent inhibition or XI(50) values. Initially, the percent inhibition of each PLA2 at 0.091 mole fraction of inhibitor was determined. XI(50) values were estimated when the percent inhibition was higher than 90%. The XI(50) is the mole fraction of the inhibitor in the total substrate interface required to inhibit the enzyme by 50%. Data for the reference 2-oxoamide inhibitors AX006 and AX048 are included in Table 1 for comparison. Phospholipase A2 activity was determined using the previously described modified Dole assay with buffer and substrate conditions optimized for each enzyme as described previously: (i) GIVA cPLA2 substrate mixed-micelles were composed of 400 μM Triton […]-labeled PAPC, and 3 μM PIP2 in buffer containing 100 mM HEPES pH 7.5, 90 μM CaCl2, 2 mM DTT and 0.1 mg/ml BSA; (ii) GVI iPLA2 substrate mixed-micelles were composed of either (a) 400 μM Triton X-100, 99 μM DPPC, and 1.5 μM ^14C-labeled DPPC in buffer containing 200 mM HEPES pH 7.0, 1 mM ATP, 2 mM DTT and 0.1 mg/ml BSA or (b) 400 μM Triton X-100, 98.3 μM PAPC, and 1.7 μM ^14C-labeled PAPC in buffer containing 100 mM HEPES pH 7.5, 2 mM ATP and 4 mM DTT; and (iii) GV sPLA2 substrate mixed-micelles were composed of 400 μM Triton X-100, 99 μM DPPC, and 1.5 μM ^14C-labeled DPPC in buffer containing 50 mM Tris pH 8.0 and 5 mM CaCl2. Initial screening of compounds at 0.091 mole fraction inhibitor in mixed-micelles was carried out. Compounds displaying 25% or less inhibition had no inhibitory affect (designated N.D.). The average percent inhibition (and standard error, n=3) for compounds displaying more than 25% and less than 90% enzyme inhibition is reported herein. If the percent inhibition was greater than 90%, then its XI(50) was determined by plotting percent inhibition vs. inhibitor molar fraction (7 points; typically 0.005 to 0.091 mole fraction). Inhibition curves were modeled in Graphpad Prism using either a linear (x, y intercept=0) or non-linear regression (one-site binding model-hyperbola, BMAX=100) to calculate the reported XI(50) and associated error values.

[2] = molecular target: T2, GV sPLA2 (Homo sapiens, UniProt P39877); assay: In vitro PLA2 mixed micellar assay (modified Dole assay), GV sPLA2; type: biochemical; conditions: at 0.091 mole fraction of inhibitor, n = 3
T2 sequence (P39877 21-138): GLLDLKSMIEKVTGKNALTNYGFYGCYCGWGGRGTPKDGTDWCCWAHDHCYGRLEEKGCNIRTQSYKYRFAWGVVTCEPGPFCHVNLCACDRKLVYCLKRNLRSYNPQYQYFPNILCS
Protocol: as §1

[3] = tested on: RAW 264.7 macrophages; assay: Inhibition of Kdo2-Lipid A stimulated arachidonic acid release; type: cell-based; conditions: for inhibition at 25 µM / IC50: Mus musculus; for inhibition at 25 µM: RAW264.7, read-out: AA Release Inhibition (%); for Effect on AA release (in words): 25 μM inhibitor; for Effect on AA release (in words) / IC50: Kdo2-Lipid A; for IC50: RAW264.7, RAW 264.7 cells, half maximal of the maximum inhibition observed
Source text: Arachidonic acid (AA) is the ideal metabolic indicator of GIVA cPLA2 activity, since it is the product of GIVA cPLA2-mediated catalysis. In addition to some of the new 2-oxoamides based on dipeptides and pseudodipeptides that were synthesized in this work, a series of potent 2-oxoamide in vitro inhibitors of GIVA cPLA2, previously reported by us, were further tested in a cellular ex vivo system to investigate whether they reduced cellular AA production. For this purpose, RAW 264.7 macrophages were preincubated with 25 μM concentrations of the inhibitor prior to treatment of the cells with Kdo2-Lipid A. Subsequently, AA release was quantitated from the supernatants.
RAW 264.7 macrophages were maintained in a humidified atmosphere at 37° C. with 5% CO2, as described elsewhere.^36 The cells were cultured in DMEM media that was supplemented with 10% fetal bovine serum, 2 mM glutamine, 100 units/mL penicillin, 100 μg/ml streptomycin, and non-essential amino acids. The cells were plated at a confluency of 2×10^6 cells per well in 6 well tissue culture plates and allowed to adhere overnight. Inhibitors were added to the medium 30 min before Kdo2-Lipid A was added and the supernatants were collected at 1 hour following stimulation. Subsequently, AA was extracted from the supernatants and quantitated by HPLC-MS, as described elsewhere.^36, 37 AA release levels were normalized to pmol AA release per million cells though DNA quantitation using the Broad Range DNA Quant-Kit (Invitrogen). IC50 values were determined by estimating the concentration of inhibitor required for half maximal inhibition of the maximum inhibition observed with a given inhibitor.

[4] = molecular target: T1, GIVA cPLA2; conditions: in vitro; inhibitors previously reported; also inhibit GVIA iPLA2 and GV sPLA2; cited from earlier work
[5] = 25 μM inhibitor preincubated, Kdo2-Lipid A stimulation, RAW 264.7 macrophages
[6] = read-out: IC50 for the inhibition of arachidonic acid release (text)
[7] = read-out: IC50 for the inhibition of arachidonic acid release

Structure (SMILES): CCCCCCCCCCCCCCC(=O)C(=O)N[C@@H](CCCC)C(=O)NCC(=O)OC [Compound 4a, (S)-Methyl 2-(2-(2-oxohexadecanamido)hexanamido)acetate]
- melting point: 65 to 67 °C
- GIVA cPLA2 X1(50) [1]: 0.021 ± 0.009 mole fraction
- GV sPLA2 % inhibition [2]: 65%

Structure (SMILES): CCCCCCCCCCCCCCC(=O)C(=O)N[C@H](C(=O)NCC(=O)OC)C(C)C [Compound 4b, (S)-Methyl-2-(3-methyl-2-(2-oxohexadecanamido)butanamido)-acetate]
- melting point: 118 to 119 °C
- GIVA cPLA2 % inhibition [1]: 25%
- inhibition at 0.091 mole fraction [2]: < 25%

Structure (SMILES): CCCCCCCCCCCCCCC(=O)C(=O)N[C@@H](CCCC)C(=O)NCC(=O)OCC [Compound 4c, (S)-Ethyl 2-(2-(2-oxohexadecanamido)hexanamido)acetate]
- melting point: 63 to 65 °C
- GIVA cPLA2 % inhibition [1]: 73%
- GV sPLA2 % inhibition [2]: 63%

Structure (SMILES): CCCCCCCCCCCCCCC(=O)C(=O)N[C@@H](CCCC)C(=O)NCC(=O)OC(C)(C)C [Compound 8a, (S)-tert-Butyl 2-(2-(2-oxohexadecanamido)hexanamido)acetate]
- melting point: 38 to 39 °C
- GIVA cPLA2 % inhibition [1]: 72%
- GV sPLA2 % inhibition [2]: 59%

Structure (SMILES): CCCCCCCCCCCCCCC(=O)C(=O)N[C@H](C(=O)NCC(=O)OC(C)(C)C)C(C)C [Compound 8b, (S)-tert-Butyl-2-(3-methyl-2-(2-oxohexadecanamido)butanamido)-acetate]
- AA Release Inhibition (%) [3, 5]: 30 ± 2%
- inhibition at 25 µM [3, 5]: 30%
- melting point: 58 to 61 °C
- GIVA cPLA2 X1(50) [1]: 0.028 ± 0.015 mole fraction

Structure (SMILES): CCCCCCCCCCCCCCC(=O)C(=O)N[C@@H](CCCC)C(=O)NCC(=O)O [Compound 9a, (S)-2-(2-(2-Oxohexadecanamido)hexanamido)acetic Acid]
- GIVA cPLA2 X1(50) [1]: 0.035 ± 0.014 mole fraction
- inhibition at 0.091 mole fraction [2]: < 25%

Structure (SMILES): CCCCCCCCCCCCCCC(=O)C(=O)N[C@H](C(=O)NCC(=O)O)C(C)C [Compound 9b, (S)-2-(3-Methyl-2-(2-oxohexadecanamido)butanamido)acetic Acid]
- melting point: 87 to 89 °C
- GIVA cPLA2 X1(50) [1]: 0.061 ± 0.017 mole fraction
- inhibition at 0.091 mole fraction [2]: < 25%

Structure (SMILES): CCCCCCCCCCCCCCC(=O)C(=O)N[C@@H](CCCC)COCC(=O)OCC [Compound 13, (S)-Ethyl 2-(2-(2-oxohexadecanamido)hexyloxy)acetate]
- melting point: 41 to 43 °C
- GIVA cPLA2 % inhibition [1]: 52%

Structure (SMILES): CCCCCCCCCCCCCCC(=O)C(=O)N[C@@H](CCCC)COCC(=O)OC(C)(C)C [Compound 17, (S)-tert-Butyl 2-(2-(2-oxohexadecanamido)hexyloxy)acetate]
- GIVA cPLA2 % inhibition [1]: 44%
- GV sPLA2 % inhibition [2]: 57%

Structure (SMILES): CCCCCCCCCCCCCCC(=O)C(=O)N[C@@H](CCCC)COCC(=O)O [Compound 18, (S)-2-(2-(2-oxohexadecanainido)hexyloxy)acetic Acid]
- Effect on AA release (in words) ([3]; RAW 264.7 macrophages): significant reduction of AA release
- IC50 [3, 6]: 2 µM
- inhibition at 25 µM [3, 5]: 68%
- melting point: 64 to 66 °C
- GIVA cPLA2 X1(50) [1]: 0.017 mole fraction and 0.017 ± 0.002 mole fraction
- inhibition at 0.091 mole fraction [2]: < 25%

Structure (SMILES): CCC(=O)C(=O)NCCCC(=O)O [Compound 19]
- Effect on AA release (in words) ([3]; RAW 264.7 macrophages): significant reduction of AA release
- IC50 [3, 7]: 25 µM
- IC50 [3, 6]: ~25 µM
- inhibition at 25 µM [3, 5]: 52 ± 5%

Structure (SMILES): CCNC(=O)OC[C@@H](CCC(=O)OC)NC(=O)C(=O)CC [Compound 23]
- Inhibition of GIVA cPLA2 (in words) [4]: inhibit GIVA cPLA2 to a high extent, though not selectively

Structure (SMILES): CCOC(=O)CCCNC(=O)C(=O)CC [Compound 24]
- Inhibition of GIVA cPLA2 (in words) [4]: inhibit GIVA cPLA2 to a high extent, though not selectively

Structure (SMILES): CCC(=O)C(=O)N[C@H](CCC(=O)O)CC(C)C [Compound 25]
- Effect on AA release (in words) ([3]; RAW 264.7 macrophages): significant reduction of AA release
- IC50 [3, 7]: 25 µM
- IC50 [3, 6]: ~25 µM
- inhibition at 25 µM [3, 5]: 62 ± 5%

Structure (SMILES): CCC[C@@H](CCC(=O)O)NC(=O)C(=O)CC [Compound 26]
- Effect on AA release (in words) ([3]; RAW 264.7 macrophages): significant reduction of AA release
- IC50 [3, 7]: 25 µM
- IC50 [3, 6]: ~25 µM
- inhibition at 25 µM [3, 5]: 79 ± 0.5%

Structure (SMILES): CCC[C@@H](CCC(=O)OC)NC(=O)C(=O)CC [Compound 27]
- Inhibition of GIVA cPLA2 (in words) [4]: inhibit GIVA cPLA2 to a high extent, though not selectively

Structure (SMILES): CCC[C@@H](/C=C/C=C/C(=O)O)NC(=O)C(=O)CC [Compound 28]
- inhibition at 25 µM [3, 5]: 6 ± 10%

Structure (SMILES): CCC[C@@H](/C=C/C(=O)OC)NC(=O)C(=O)CC [Compound 29]
- Inhibition of GIVA cPLA2 (in words) [4]: inhibit GIVA cPLA2 to a high extent, though not selectively

Structure (SMILES): CCC[C@@H](/C=C/C(=O)O)NC(=O)C(=O)CC [Compound 30]
- Effect on AA release (in words) ([3]; RAW 264.7 macrophages): significant reduction of AA release
- IC50 [3, 7]: 25 µM
- IC50 [3, 6]: ~25 µM
- inhibition at 25 µM [3, 5]: 74 ± 8%

Structure (SMILES): CCC(=O)C(=O)N[C@@H](C)CCC(=O)OC(C)(C)C [Compound 31]
- Inhibition of GIVA cPLA2 (in words) [4]: inhibit GIVA cPLA2 to a high extent, though not selectively

Structure (SMILES): CCC[C@@H](CCCC(=O)O)NC(=O)C(=O)CC [Compound 35]
- Effect on AA release (in words) ([3]; RAW 264.7 macrophages): significant reduction of AA release
- IC50 [3, 7]: 7 µM
- IC50 [3, 6]: 7 µM
